Data on one compound can be found in patent US6987101B1, “Therapeutic gestagens for the treatment of premenstrual dysphoric disorder” (Schering Aktiengesellschaft, priority 1996, dated 2006).

The subject of this assay is premenstrual dysphoric disorder (PMDD) symptoms. Put plainly: Oral treatment of women classified as PMDD patients over 4 to 6 cycles, re-evaluation of symptom criteria 1 to 11. It is filed as in vivo, fertile women. To be noted: 3 mg drospirenone together with 30 μg ethinylestradiol orally daily, day 1 to day 21 of the cycle, then 7 pill-free or placebo days; evaluated after 4 to 6 cycles; all of the women treated. From the text: In the prospective evaluation by recording the symptoms of the patient over 2 or 3 menstrual cycles, 5 (or more) of the symptoms that are listed below occur during the last week of the luteal phase, but no longer occur postmenstrually. At least one of the symptoms must be the first, second, third or fourth symptom below. • 1. Noticeably stressed mental state, feelings of hopelessness or self-doubt • 2. Noticeable feeling of anxiety, tension, feeling of “being on the edge” • 3. Noticeable emotional tendencies (e.g., suddenly feeling sad or fretful or increased sensitivity to rejection) • 4. Lasting and noticeable feelings of unease or irritability or increased interpersonal conflicts • 5. Decreasing interest in conventional activities (e.g., work, school, friends, hobbies) • 6. Subjective sensation of concentration difficulties • 7. Lethargy, slight exhaustion or noticeable lack of energy • 8. Noticeable change in appetite, overeating or special food cravings • 9. […]
Fertile women, who were classified according to the above-indicated criteria 1. to 11. as PMDD patients, are treated orally over at least 4 cycles, in each case from day 1 to day 21 of the cycle daily, with an amount of 3 mg of drospirenone together with 30 μg of ethinylestradiol. […] After a treatment over 4 to 6 cycles, the symptoms that fall into the category criteria 1. to 11. are carefully evaluated again.

For `C[C@]12CCC(=O)C=C1[C@@H]1C[C@@H]1[C@H]1[C@@H]3[C@@H]4C[C@@H]4[C@@]4(CCC(=O)O4)[C@@]3(C)CC[C@@H]12` [drospirenone], the “improvement relative to at least one of the PMDD symptoms that occurred before the beginning of the treatment (not only the 11th symptom)” value was “significant improvement”.
